Assays:
[1] = tested on: AR 1.0 cells; test: Compound toxicity (proliferation, sulphorhodamine B); format: cell-based; conditions: Mus musculus, 96 h, read-out: Compound toxicity (IC50)
[2] = tested on: AR 1.0 cells; test: Potentiation of doxorubicin toxicity (fixed doxorubicin 0.86 μM, proliferation, sulphorhodamine B); format: cell-based, mouse
From the text: Compounds of formula (I) were examined for their ability to potentiate the toxicity of doxorubicin in AR 1.0 cells.

[3] = tested on: AR 1.0 cells; test: Potentiation index for doxorubicin (doxorubicin titration with fixed concentration of compound); format: cell-based, mouse
Description: The EMT6 mouse mammary carcinoma cell line and the MDR resistant sublime AR 1.0 were cultured in RPMI 1640 medium containing 10% foetal calf serum and 2 mM glutamine at 37° C. in 5% CO2. Cells were passaged between 1 in 200 and 1 in 2000 in the case of the parental cell line and between 1 in 20 and 1 in 200 in the case of the MDR resistant subline, after trypsinisation (0.25% trypsin, 0.2 gl^-1, EDTA).
Cells were cultured for four days with a titration of doxorubicin (0.01 nm-50 μM) in the presence of a fixed concentration of each compound. Proliferation was quantified as described by Skehan et. al, loc cit. The IC50 (concentration required to reduce proliferation to 50% of the untreated controls) for doxorubicin alone and with each compound were derived and used to calculate the potentiation index (PI): [formula]

[4] = tested on: AR 1.0 cells; test: Drug accumulation assay (tritiated daunorubicin); format: cell-based; conditions: Mus musculus, read-out: IC50 accumulation
Description: AR 1.0 cells were seeded into 96 well opaque culture plates (Canberra Packard). The assay medium contained a mixture of tritiated Daunorubicin (DNR), a cytotoxic agent, and unlabelled DNR (0.3 μCi/ml; 2 μM). Compounds of formula I were serially diluted in assay medium over a range of concentrations from 5 nM to 100 μM. The cells were incubated at 37° C. for 1 hr before washing and determination of cell associated radioactivity. Results were expressed as % maximum accumulation where 100% accumulation is that observed in the presence of the known RMA verapamil at 100 μM. Where possible an IC50 was determined.

[5] = tested on: MDR cells; conditions: in vitro and in vivo; Cancer Res., 41, 1967-1972 (1981); cited from earlier work
[6] = compound alone, AR 1.0 cells, four day incubation
[7] = with doxorubicin 0.86 μM, four day incubation, 5760 min, read-out: Toxicity with cytotoxic agent (IC50)
[8] = RMA at 1 μM, doxorubicin, four days
[9] = daunorubicin 2 μM, 1 hr at 37° C.

Compound | IC50 [1, 6] [µM] | IC50 [2, 7] [µM] | Potentiation index [3, 8] | IC50 [4, 9] [µM] | further results
Cn1c(=O)/c(=C/c2ccc(C(=O)N3CCN(c4ncccn4)CC3)cc2)[nH]c(=O)/c1=C/c1ccccc1 [Compound 9022, 1-(4-((3Z,6Z)-6-Benzylidene-1-methyl-2,5-dioxo-3-piperazinylidene)methylbenzoyl)-4-(2-pyrimidyl)piperazine] | 35 | 0.8 | 5 | 7 | 
COc1cc2c(cc1OC)CN(CCc1ccc(NC(=O)c3cccc(/C=c4\[nH]c(=O)/c(=C/c5ccccc5)n(C)c4=O)c3)cc1)CC2.Cl [Compound 9051, N-(4-(2-(6,7-Dimethoxy-1,2,3,4-tetrahydro-2-isoquinolyl)ethyl)phenyl)-3-((3Z,6Z)-6-benzylidene-1-methyl-2,5-dioxo-3-piperazinylidene)methylbenzamide, hydrochloride] |  | 0.01 | 2000 |  | IC50 [1]: 2 µM; IC50 ([4]; 1 h): 0.15 µM
COc1cc2c(cc1OC)CN(Cc1ccc(NC(=O)c3ccc(/C=c4\[nH]c(=O)/c(=C/c5ccccc5)n(C)c4=O)cc3)cc1)CC2.Cl [Compound 9064, N-(4-(6,7-Dimethoxy-1,2,3,4-tetrahydro-2-isoquinolyl)methylphenyl)-4-((3Z,6Z)-6-benzylidene-1-methyl-2,5-dioxo-3-piperazinylidene)methylbenzamide, hydrochloride] | 2 | 0.01 | 750 | 0.3 | 
COc1ccc(N2CCN(C(=O)c3ccc(/C=c4\[nH]c(=O)/c(=C/c5ccccc5)n(C)c4=O)cc3)CC2)cc1.Cl [Compound 9071, 1-(4-((3Z,6Z)-6-Benzylidene-1-methyl-2,5-dioxo-3-piperazinylidene)methylbenzoyl)-4-(4-methoxyphenyl)piperazine, hydrochloride] | 6 | 0.2 | 4 | 6 | 
Cn1c(=O)/c(=C/c2ccc(C(=O)Nc3ccc(CCN4CCC(O)(c5ccc(Cl)cc5)CC4)cc3)cc2)[nH]c(=O)/c1=C/c1ccccc1 [Compound 9079, N-(4-(2-(4-(4-Chlorophenyl) -4-hydroxypiperidino)ethyl)phenyl)-4-((3Z,6Z)-6-benzylidene-1-methyl-2,5-dioxo-3-piperazinylidene)methylbenzamide] | 2 |  | 3 | 80 | IC50 ([2]; ar 1.0 cells, 96 h): 1.7 µM
Cl.Cn1c(=O)/c(=C/c2ccc(C(=O)Nc3ccc(CN4CCN(c5ccccc5)CC4)cc3)cc2)[nH]c(=O)/c1=C/c1ccccc1 [Compound 9104, N-(4-(4-Phenyl-1-piperazinyl)methylphenyl)-4-((3Z,6Z)-6-benzylidene-1-methyl-2,5-dioxo-3-piperazinylidene)methylbenzamide, hydrochloride] | 40 |  | 17 | 5 | 
COc1cc2c(cc1OC)CN(CCNC(=O)c1cccc(/C=c3\[nH]c(=O)/c(=C/c4ccccc4)n(C)c3=O)c1)CC2 [Compound 9136, N-(2-(6,7-Dimethoxy-1,2,3,4-tetrahydro-2-isoquinolyl)ethyl)-3-((3Z,6Z)-6-benzylidene-1-methyl-2,5-dioxo-3-piperazinylidene)methylbenzamide] | 13 | 2 | 25 | 0.9 | 
COc1ccc(CCN(C)CCc2ccc(NC(=O)c3cccc(/C=c4\[nH]c(=O)/c(=C/c5ccccc5)n(C)c4=O)c3)cc2)cc1OC [Compound 9138] | 8 | 1 | 333 | 0.8 | 
CN(CCNC(=O)c1cccc(/C=c2\[nH]c(=O)/c(=C/c3ccccc3)n(C)c2=O)c1)CC(c1ccccc1)c1ccccc1 [Compound 9163, N-(2-(2,2-Diphenylethyl)methylaminoethyl)-3-((3Z,6Z)-6-benzylidene-1-methyl-2,5-dioxo-3-piperazinylidene)methylbenzamide] | 10 | 0.5 | 6.7 | 2 | 
COc1cc2c(cc1OC)CN(CCc1ccc(COc3ccc(/C=c4\[nH]c(=O)/c(=C/c5ccccc5)n(C)c4=O)cc3)cc1)CC2 [Compound 9176, (3Z,6Z)-6-Benzylidene-3-(4-(4-(2-(6,7-dimethoxy-1,2,3,4-tetrahydro-2-isoquinolyl)ethyl)benzyloxy)benzylidene)-1-methyl-2,5-piperazinedione] | 10 | 0.2 | 300.0 | 1 | 
COc1cc2c(cc1OC)CN(CCc1ccc(COc3cccc(/C=c4\[nH]c(=O)/c(=C/c5ccccc5)n(C)c4=O)c3)cc1)CC2 [Compound 9177, (3Z,6Z)-6-Benzylidene-3-(3-(4-(2-(6,7-dimethoxy-1,2,3,4-tetrahydro-2-isoquinolyl)ethyl)benzyloxy)benzylidene)-1-methyl-2,5-piperazinedione] | 15 | 0.5 | 75.0 | 1.75 | 
COc1cc2c(cc1OC)CN(CCc1ccc(C(=O)Nc3ccc(/C=c4\[nH]c(=O)/c(=C/c5ccccc5)n(C)c4=O)cc3)cc1)CC2 [Compound 9190, N-(4-((3Z,6Z)-6-Benzylidene-1-methyl-2,5-dioxo-3-piperazinylidene)methylphenyl)-4-(2-(6,7-dimethoxy-1,2,3,4-tetrahydro-2-isoquinolyl)ethyl)benzamide] | 15 | 0.05 |  | 0.35 | Potentiation index ([3]; measured at 0.01 μM): 1.4; Potentiation index ([3]; measured at 0.03 μM): 3.3; Potentiation index ([3]; measured at 0.1 μM): 10.0; Potentiation index ([3]; measured at 0.3 μM): 75.0
COc1ccc(CCN(C)CCCC(C#N)(c2ccc(OC)c(OC)c2)C(C)C)cc1OC (stereo not drawn) [Verapamil] |  |  |  |  | sensitisation of MDR cells to Vinca alkaloids [5]: shown to sensitise MDR cells to Vinca alkaloids in vitro and in vivo
